Source: patent publication US7063946B2, “Methods, reagents, kits and apparatus for protein function analysis” (Meso Scale Technologies, LLC., priority 2001, dated 2006)

Key:
Assay in all cases: Kinase inhibitor profiling, pEY phosphorylation
Assay type in all cases: biochemical
BMX = target: T1, BMX (Homo sapiens, UniProt P51813)
T1 construct: specificity data for proteins generated from a library of eighteen full-length clones; host or cells: rabbit reticulocyte lysate, TnT coupled in vitro transcription/translation (cell-free)
T1 sequence (P51813 1-675): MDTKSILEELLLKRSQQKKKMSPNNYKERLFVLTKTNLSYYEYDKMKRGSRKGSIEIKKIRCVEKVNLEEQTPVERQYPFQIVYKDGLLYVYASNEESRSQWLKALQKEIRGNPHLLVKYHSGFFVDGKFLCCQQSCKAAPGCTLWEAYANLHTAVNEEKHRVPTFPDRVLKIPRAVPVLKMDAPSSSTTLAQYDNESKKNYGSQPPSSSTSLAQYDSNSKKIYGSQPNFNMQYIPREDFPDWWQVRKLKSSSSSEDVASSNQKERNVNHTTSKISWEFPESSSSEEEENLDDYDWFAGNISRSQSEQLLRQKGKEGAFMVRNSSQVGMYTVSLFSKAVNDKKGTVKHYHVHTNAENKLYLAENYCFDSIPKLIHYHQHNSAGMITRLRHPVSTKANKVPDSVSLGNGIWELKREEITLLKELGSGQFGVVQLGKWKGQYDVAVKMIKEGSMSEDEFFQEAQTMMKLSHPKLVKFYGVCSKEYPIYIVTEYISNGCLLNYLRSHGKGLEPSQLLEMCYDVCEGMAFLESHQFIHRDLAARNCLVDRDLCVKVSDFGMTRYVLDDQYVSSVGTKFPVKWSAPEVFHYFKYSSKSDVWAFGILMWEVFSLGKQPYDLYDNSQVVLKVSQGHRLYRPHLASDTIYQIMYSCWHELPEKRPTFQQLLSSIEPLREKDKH

Tek = target: T2, Tek (Mus musculus, UniProt Q02858)
T2 construct: specificity data for proteins generated from a library of eighteen full-length clones; host or cells: rabbit reticulocyte lysate, TnT coupled in vitro transcription/translation (cell-free)
T2 sequence (Q02858 23-1122): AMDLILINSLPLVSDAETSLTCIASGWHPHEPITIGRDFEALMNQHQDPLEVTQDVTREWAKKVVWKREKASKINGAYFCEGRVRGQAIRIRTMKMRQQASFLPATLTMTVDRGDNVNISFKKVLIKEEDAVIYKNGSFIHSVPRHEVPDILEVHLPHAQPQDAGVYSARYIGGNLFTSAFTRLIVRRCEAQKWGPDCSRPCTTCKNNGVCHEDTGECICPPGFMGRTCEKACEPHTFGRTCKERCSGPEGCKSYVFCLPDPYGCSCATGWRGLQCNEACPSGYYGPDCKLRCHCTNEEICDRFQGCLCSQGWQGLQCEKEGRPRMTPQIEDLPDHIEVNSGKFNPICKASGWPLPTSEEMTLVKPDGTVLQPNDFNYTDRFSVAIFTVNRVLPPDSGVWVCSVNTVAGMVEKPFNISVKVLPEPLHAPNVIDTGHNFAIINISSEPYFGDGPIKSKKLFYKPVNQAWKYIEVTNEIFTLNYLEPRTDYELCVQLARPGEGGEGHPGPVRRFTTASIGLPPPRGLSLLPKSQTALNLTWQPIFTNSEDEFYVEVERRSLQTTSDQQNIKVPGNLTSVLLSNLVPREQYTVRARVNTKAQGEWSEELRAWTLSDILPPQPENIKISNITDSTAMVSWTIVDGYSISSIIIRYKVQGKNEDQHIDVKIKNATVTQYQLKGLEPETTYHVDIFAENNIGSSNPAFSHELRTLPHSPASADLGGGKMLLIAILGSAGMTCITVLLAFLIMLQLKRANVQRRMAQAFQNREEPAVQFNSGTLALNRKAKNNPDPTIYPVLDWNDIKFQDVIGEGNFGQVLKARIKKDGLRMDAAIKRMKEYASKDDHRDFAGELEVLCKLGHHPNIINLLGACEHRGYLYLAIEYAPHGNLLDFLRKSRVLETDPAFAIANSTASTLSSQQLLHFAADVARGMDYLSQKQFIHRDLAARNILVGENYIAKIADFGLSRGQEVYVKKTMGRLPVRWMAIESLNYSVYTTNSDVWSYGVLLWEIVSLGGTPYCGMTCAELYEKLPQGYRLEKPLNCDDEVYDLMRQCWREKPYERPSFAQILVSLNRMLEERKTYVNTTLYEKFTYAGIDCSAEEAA

CSK = target: T3, CSK (Homo sapiens, UniProt P41240)
T3 construct: specificity data for proteins generated from a library of eighteen full-length clones; host or cells: rabbit reticulocyte lysate, TnT coupled in vitro transcription/translation (cell-free)
T3 sequence (P41240 whole entry): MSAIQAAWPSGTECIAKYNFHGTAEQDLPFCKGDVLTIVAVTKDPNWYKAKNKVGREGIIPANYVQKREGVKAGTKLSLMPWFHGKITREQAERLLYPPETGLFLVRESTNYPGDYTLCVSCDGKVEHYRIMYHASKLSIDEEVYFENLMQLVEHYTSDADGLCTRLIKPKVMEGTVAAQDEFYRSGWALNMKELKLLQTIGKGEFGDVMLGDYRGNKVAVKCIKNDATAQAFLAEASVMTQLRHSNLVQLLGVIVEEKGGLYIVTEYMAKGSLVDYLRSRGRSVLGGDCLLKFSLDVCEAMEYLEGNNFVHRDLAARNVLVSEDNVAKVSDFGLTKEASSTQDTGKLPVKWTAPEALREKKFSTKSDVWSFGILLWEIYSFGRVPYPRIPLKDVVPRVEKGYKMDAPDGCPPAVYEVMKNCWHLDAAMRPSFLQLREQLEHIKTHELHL

SYK = target: T4, SYK (Homo sapiens, UniProt P43405)
T4 construct: autophosphorylation activity from full-length clones Spleen Tyrosine Kinase (SYK) and Eph receptor-A7 (EphA7); host or cells: rabbit reticulocyte lysate, TnT coupled in vitro transcription/translation (cell-free)

SRC = target: T5, SRC (Mus musculus, UniProt P05480)
T5 construct: specificity data for proteins generated from a library of eighteen full-length clones; host or cells: rabbit reticulocyte lysate, TnT coupled transcription/translation
T5 sequence (P05480 whole entry): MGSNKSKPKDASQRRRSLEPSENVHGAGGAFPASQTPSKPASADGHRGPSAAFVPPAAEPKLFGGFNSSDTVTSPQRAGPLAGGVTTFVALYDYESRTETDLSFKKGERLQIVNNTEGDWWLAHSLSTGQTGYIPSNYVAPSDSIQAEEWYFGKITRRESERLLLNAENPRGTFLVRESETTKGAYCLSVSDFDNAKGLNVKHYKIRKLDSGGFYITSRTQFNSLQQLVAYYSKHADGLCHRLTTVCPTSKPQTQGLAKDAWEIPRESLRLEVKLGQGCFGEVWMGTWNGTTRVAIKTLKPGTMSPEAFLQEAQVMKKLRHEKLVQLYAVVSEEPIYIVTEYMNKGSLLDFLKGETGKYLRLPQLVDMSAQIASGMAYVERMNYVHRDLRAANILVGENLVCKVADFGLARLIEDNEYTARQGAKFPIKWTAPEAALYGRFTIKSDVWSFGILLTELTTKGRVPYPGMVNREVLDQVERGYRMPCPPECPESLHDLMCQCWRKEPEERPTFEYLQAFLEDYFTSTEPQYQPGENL

PTK2B = target: T6, PTK2B (Homo sapiens, UniProt Q14289)
T6 construct: specificity data for proteins generated from a library of eighteen full-length clones; host or cells: rabbit reticulocyte lysate, TnT coupled in vitro transcription/translation (cell-free)
T6 sequence (Q14289 whole entry): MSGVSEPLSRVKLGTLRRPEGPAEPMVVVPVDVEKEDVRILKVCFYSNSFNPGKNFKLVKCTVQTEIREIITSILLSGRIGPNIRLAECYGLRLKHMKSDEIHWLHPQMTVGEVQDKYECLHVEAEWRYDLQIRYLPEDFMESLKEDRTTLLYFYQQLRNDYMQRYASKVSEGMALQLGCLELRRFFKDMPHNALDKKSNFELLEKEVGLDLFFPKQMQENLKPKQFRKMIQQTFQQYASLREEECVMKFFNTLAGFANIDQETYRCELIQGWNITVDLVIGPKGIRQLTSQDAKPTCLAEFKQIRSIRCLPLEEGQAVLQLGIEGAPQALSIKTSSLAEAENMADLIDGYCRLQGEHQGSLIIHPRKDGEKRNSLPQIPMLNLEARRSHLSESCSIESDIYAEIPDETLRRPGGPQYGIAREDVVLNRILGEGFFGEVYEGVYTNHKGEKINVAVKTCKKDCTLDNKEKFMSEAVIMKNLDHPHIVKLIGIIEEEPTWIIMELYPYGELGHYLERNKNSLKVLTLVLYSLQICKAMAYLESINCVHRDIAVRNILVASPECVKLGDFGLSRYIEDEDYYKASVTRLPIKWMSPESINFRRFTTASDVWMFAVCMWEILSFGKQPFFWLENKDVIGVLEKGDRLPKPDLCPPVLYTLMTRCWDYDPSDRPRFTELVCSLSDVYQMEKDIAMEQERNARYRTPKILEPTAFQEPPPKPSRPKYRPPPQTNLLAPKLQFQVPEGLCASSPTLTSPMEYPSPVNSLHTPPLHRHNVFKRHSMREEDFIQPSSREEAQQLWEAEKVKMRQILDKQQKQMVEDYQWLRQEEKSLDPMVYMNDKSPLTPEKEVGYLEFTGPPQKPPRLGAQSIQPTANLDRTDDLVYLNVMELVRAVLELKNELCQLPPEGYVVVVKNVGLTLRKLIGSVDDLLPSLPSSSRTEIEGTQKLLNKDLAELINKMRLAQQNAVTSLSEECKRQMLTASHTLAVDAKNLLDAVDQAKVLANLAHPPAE

Epha7 = target: T7, Epha7 (Mus musculus, UniProt Q61772)
T7 construct: autophosphorylation activity from full-length clones Spleen Tyrosine Kinase (SYK) and Eph receptor-A7 (EphA7); host or cells: rabbit reticulocyte lysate, TnT coupled in vitro transcription/translation (cell-free)
T7 sequence (Q61772 28-998): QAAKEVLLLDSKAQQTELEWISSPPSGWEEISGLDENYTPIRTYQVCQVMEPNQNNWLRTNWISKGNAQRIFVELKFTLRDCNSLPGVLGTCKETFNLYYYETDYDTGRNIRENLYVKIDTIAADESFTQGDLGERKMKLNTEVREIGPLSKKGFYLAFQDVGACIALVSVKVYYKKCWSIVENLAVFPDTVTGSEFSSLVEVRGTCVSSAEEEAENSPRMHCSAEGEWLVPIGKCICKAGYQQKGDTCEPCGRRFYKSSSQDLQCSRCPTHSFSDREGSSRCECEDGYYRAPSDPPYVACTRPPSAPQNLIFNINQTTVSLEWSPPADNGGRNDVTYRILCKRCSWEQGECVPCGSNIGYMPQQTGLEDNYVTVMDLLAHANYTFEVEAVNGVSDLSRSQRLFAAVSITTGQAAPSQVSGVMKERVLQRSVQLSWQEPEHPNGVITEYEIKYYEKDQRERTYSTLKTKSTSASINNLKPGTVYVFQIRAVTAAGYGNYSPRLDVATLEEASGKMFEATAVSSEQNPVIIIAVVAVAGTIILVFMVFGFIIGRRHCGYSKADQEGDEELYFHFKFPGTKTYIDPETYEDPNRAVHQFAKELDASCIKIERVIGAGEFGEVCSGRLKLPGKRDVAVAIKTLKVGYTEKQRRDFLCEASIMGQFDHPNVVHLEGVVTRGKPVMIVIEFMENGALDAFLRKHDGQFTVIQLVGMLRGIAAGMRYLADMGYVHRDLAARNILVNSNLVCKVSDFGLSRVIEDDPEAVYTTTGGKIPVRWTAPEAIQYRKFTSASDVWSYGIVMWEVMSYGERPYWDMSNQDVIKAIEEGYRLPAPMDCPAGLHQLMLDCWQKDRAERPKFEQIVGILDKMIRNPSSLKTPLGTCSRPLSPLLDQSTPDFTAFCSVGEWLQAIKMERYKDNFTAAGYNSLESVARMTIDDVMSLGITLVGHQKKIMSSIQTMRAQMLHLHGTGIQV

HCK = target: T8, HCK (Homo sapiens, UniProt P08631)
T8 construct: specificity data for proteins generated from a library of eighteen full-length clones; host or cells: rabbit reticulocyte lysate, TnT coupled in vitro transcription/translation (cell-free)
T8 sequence (P08631 whole entry): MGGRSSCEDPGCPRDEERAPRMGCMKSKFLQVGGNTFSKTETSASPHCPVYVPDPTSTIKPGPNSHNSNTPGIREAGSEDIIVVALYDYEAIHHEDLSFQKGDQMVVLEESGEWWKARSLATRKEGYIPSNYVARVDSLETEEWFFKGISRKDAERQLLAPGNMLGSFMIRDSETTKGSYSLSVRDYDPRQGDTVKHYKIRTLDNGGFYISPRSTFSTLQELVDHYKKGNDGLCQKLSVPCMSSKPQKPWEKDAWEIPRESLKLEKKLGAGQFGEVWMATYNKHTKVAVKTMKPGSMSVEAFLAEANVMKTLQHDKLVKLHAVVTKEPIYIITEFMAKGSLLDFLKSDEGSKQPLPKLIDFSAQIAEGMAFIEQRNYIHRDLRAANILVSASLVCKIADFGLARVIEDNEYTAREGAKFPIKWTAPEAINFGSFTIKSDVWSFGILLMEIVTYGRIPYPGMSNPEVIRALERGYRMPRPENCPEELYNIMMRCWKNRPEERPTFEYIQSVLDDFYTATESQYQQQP

COC(=O)c1ccc(NCc2cc(O)ccc2O)cc1 [AG-957]
Inhibition specificity towards pEY phosphorylation at 10X IC50, BMX (BMX): L (low inhibition (“L”=between 50–75% of the activity remaining)) | Inhibition specificity towards pEY phosphorylation at 10X IC50, Tek (Tek): L (low inhibition (“L”=between 50–75% of the activity remaining)) | Inhibition specificity towards pEY phosphorylation at 10X IC50, CSK (CSK): M (medium inhibition (“M”=between 25 to 50% of the activity remaining))

CC(C)(C)c1cc(C=C(C#N)C#N)cc(Br)c1O [AG-1024]
Inhibition specificity towards pEY phosphorylation at 10X IC50, SYK (SYK): L (low inhibition (“L”=between 50–75% of the activity remaining)) | Inhibition specificity towards pEY phosphorylation at 10X IC50, Tek (Tek): L (low inhibition (“L”=between 50–75% of the activity remaining))

Cc1cc2ncc(-c3ccc(O)c(O)c3)nc2cc1C [AG-1433]
Inhibition specificity towards pEY phosphorylation at 10X IC50, BMX (BMX): H (high inhibition (“H”=less than 25% of the activity remaining)) | Inhibition specificity towards pEY phosphorylation at 10X IC50, SYK (SYK): M (medium inhibition (“M”=between 25 to 50% of the activity remaining)) | Inhibition specificity towards pEY phosphorylation at 10X IC50, Src (SRC): H (high inhibition (“H”=less than 25% of the activity remaining)) | Inhibition specificity towards pEY phosphorylation at 10X IC50, Tek (Tek): M (medium inhibition (“M”=between 25 to 50% of the activity remaining)) | Inhibition specificity towards pEY phosphorylation at 10X IC50, PTK2B (PTK2B): L (low inhibition (“L”=between 50–75% of the activity remaining)) | Inhibition specificity towards pEY phosphorylation at 10X IC50, Epha7 (Epha7): L (low inhibition (“L”=between 50–75% of the activity remaining)) | Inhibition specificity towards pEY phosphorylation at 10X IC50, CSK (CSK): M (medium inhibition (“M”=between 25 to 50% of the activity remaining)) | Inhibition specificity towards pEY phosphorylation at 10X IC50, HCK (HCK): M (medium inhibition (“M”=between 25 to 50% of the activity remaining))

COc1c(C=O)c(O)cc2c1C(=O)c1ccccc1C2=O [Damnacanthal]
Inhibition specificity towards pEY phosphorylation at 10X IC50, BMX (BMX): H (high inhibition (“H”=less than 25% of the activity remaining)) | Inhibition specificity towards pEY phosphorylation at 10X IC50, SYK (SYK): H (high inhibition (“H”=less than 25% of the activity remaining)) | Inhibition specificity towards pEY phosphorylation at 10X IC50, Src (SRC): H (high inhibition (“H”=less than 25% of the activity remaining)) | Inhibition specificity towards pEY phosphorylation at 10X IC50, Tek (Tek): M (medium inhibition (“M”=between 25 to 50% of the activity remaining)) | Inhibition specificity towards pEY phosphorylation at 10X IC50, PTK2B (PTK2B): H (high inhibition (“H”=less than 25% of the activity remaining)) | Inhibition specificity towards pEY phosphorylation at 10X IC50, Epha7 (Epha7): H (high inhibition (“H”=less than 25% of the activity remaining)) | Inhibition specificity towards pEY phosphorylation at 10X IC50, CSK (CSK): H (high inhibition (“H”=less than 25% of the activity remaining)) | Inhibition specificity towards pEY phosphorylation at 10X IC50, HCK (HCK): H (high inhibition (“H”=less than 25% of the activity remaining))

Cc1ccc(-c2nn(C(C)(C)C)c3ncnc(N)c23)cc1 [PP1]
Inhibition specificity towards pEY phosphorylation at 10X IC50, BMX (BMX): L (low inhibition (“L”=between 50–75% of the activity remaining))

COc1cc2ncnc(Nc3ccc(O)cc3)c2cc1OC [WHI-P131]
Inhibition specificity towards pEY phosphorylation at 10X IC50, BMX (BMX): L (low inhibition (“L”=between 50–75% of the activity remaining)) | Inhibition specificity towards pEY phosphorylation at 10X IC50, Src (SRC): L (low inhibition (“L”=between 50–75% of the activity remaining)) | Inhibition specificity towards pEY phosphorylation at 10X IC50, Tek (Tek): L (low inhibition (“L”=between 50–75% of the activity remaining)) | Inhibition specificity towards pEY phosphorylation at 10X IC50, PTK2B (PTK2B): L (low inhibition (“L”=between 50–75% of the activity remaining)) | Inhibition specificity towards pEY phosphorylation at 10X IC50, Epha7 (Epha7): L (low inhibition (“L”=between 50–75% of the activity remaining)) | Inhibition specificity towards pEY phosphorylation at 10X IC50, HCK (HCK): L (low inhibition (“L”=between 50–75% of the activity remaining))
